# Measured values taken from article PMC9944328 (Nature Communications, 2023).
# Legend:
# [1] = test system: SSTR2 mutants; assay: SSTR2 internalization by ELISA, HEK293, 30 min 37 °C (mutants); format: cell-based, human; settings: I284ECL3A, K291A, N276A, F294A, Bystander BRET or confocal
# Experimental: HEK293 cells were seeded into 96-well microplates at a density of 4 × 10^4 cells/well and cultured for 24 h at 37 °C with 5% CO2 and were transfected using the same procedure as the cAMP accumulation assay. The plates were washed with washing buffer (PBS) the day after transfection, and were fixed with 4% formalin at room temperature for 30 min. Cells were washed with washing buffer and blocked with PBS supplemented with 5% BSA for 1 h at room temperature. After that, cells were incubated with anti-Flag antibody (1:1000 diluted with PBS containing 5% BSA, Proteintech: 66008-4-Ig) for 1 h at room temperature. After 1 h incubation, cells were washed with washing buffer and incubating with HRP-conjugated secondary antibody for 2 h at room temperature. After incubating and washing, 50 μl of chromogenic solution was added to each well, and reacted at room temperature for 10 min, and then 0.5 M HCl were added to stop the reaction.
# All data presented are means at least three independent experiments.
# [2] = target: SSTR2 mutants (Homo sapiens, UniProt P30874, P220A); assay: Bystander BRET endosomal trafficking (β-arrestin 1-Nluc, FYVE-mVenus), HEK293 (SSTR2 mutants);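 further: Read-out is the BRET ratio between Nluc-fused β-arrestin 1 and the early endosome marker FYVE-mVenus, measured after ligand addition with coelenterazine h as substrate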
# Sequence of SSTR2 mutants (Homo sapiens, UniProt P30874, P220A) (P30874 whole entry P220A, the tested form may be a part): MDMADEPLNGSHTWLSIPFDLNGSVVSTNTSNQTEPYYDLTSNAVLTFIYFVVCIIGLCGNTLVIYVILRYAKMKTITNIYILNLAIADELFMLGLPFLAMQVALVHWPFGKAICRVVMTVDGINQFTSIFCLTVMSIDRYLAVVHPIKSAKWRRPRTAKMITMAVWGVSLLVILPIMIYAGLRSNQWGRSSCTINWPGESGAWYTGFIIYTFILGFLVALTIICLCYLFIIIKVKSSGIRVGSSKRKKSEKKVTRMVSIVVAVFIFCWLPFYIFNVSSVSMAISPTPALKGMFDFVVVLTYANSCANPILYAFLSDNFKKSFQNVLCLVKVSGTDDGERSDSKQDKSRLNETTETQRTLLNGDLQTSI
# [3] = target: SSTR2 mutants (Homo sapiens, UniProt P30874, W269A); assay: as above
# Sequence of SSTR2 mutants (Homo sapiens, UniProt P30874, W269A) (P30874 whole entry W269A): as the sequence (P30874 whole entry P220A, the tested form may be a part) above, with A220P, W269A counted along it
# [4] = target: SSTR2 mutants (Homo sapiens, UniProt P30874, F265A); assay: as above
# Sequence of SSTR2 mutants (Homo sapiens, UniProt P30874, F265A) (P30874 whole entry F265A): as the sequence (P30874 whole entry P220A, the tested form may be a part) above, with A220P, F265A counted along it
# [5] = test system: SSTR2 mutants; assay: as above; settings: for Fold of WT: Bystander BRET EC50; for EC50 / LogEC50 / Span / Top: best-fit value
compound,measurement,setting,value
N#Cc1cccc(-c2ccc3ncc(-c4cc(F)cc(F)c4)c(N4CCC(N)CC4)c3c2)c1O [paltusotine],Internalization of mutants,[1],slightly change in the internalization
same,Bottom (best-fit),[2]; P220A-1 (run 1),0.5179
same,Bottom (best-fit),[2]; P220A-2 (run 2),2.929
same,Bottom (best-fit),[2]; P220A-3 (run 3),-2.504
same,EC50,[3],0.13 ± 0.00165 µM
same,Emax,[3]; HEK293,27.2 ± 2.61%
same,Bottom (best-fit),[3]; W269A-1 (run 1),-0.847
same,Bottom (best-fit),[3]; W269A-2 (run 2),-3.759
same,Bottom (best-fit),[3]; W269A-3 (run 3),0.08484
same,Bottom (best-fit),[4]; F265A-1 (run 1),-0.01693
same,Bottom (best-fit),[4]; F265A-2 (run 2),-7.978
same,Bottom (best-fit),[4]; F265A-3 (run 3),-0.1955
same,Fold of WT,[5]; SSTR2 F294(7.35)A,17.12
same,Fold of WT,[5]; SSTR2 I284ECL3A,0.73
same,Fold of WT,[5]; SSTR2 K291(7.32)A,0.73
same,Fold of WT,[5]; SSTR2 N276(6.55)A,1.19
same,Fold of WT,[5]; SSTR2 W269(6.48)A,1.06
same,LogEC50 (best-fit),[5]; I130A-1 (run 1),~ -2.099
same,Span (best-fit),[5]; I130A-1 (run 1),~ 8554
same,Top (best-fit),[5]; I130A-1 (run 1),~ 8552
same,LogEC50 (best-fit),[5]; I130A-2 (run 2),-9.856
same,Span (best-fit),[5]; I130A-2 (run 2),-10.4
same,Top (best-fit),[5]; I130A-2 (run 2),-9.472
same,LogEC50 (best-fit),[5]; I130A-3 (run 3),-9.469
same,Span (best-fit),[5]; I130A-3 (run 3),2.038
same,Top (best-fit),[5]; I130A-3 (run 3),-0.7545
same,LogEC50 (best-fit),[5]; P220A-1 (run 1),-6.735
same,Span (best-fit),[5]; P220A-1 (run 1),12.69
same,Top (best-fit),[5]; P220A-1 (run 1),13.21
same,LogEC50 (best-fit),[5]; P220A-2 (run 2),~ -2.138
same,Span (best-fit),[5]; P220A-2 (run 2),~ 22554
same,Top (best-fit),[5]; P220A-2 (run 2),~ 22557
same,LogEC50 (best-fit),[5]; P220A-3 (run 3),-6.08
same,Span (best-fit),[5]; P220A-3 (run 3),20.28
same,Top (best-fit),[5]; P220A-3 (run 3),17.78
same,LogEC50 (best-fit),[5]; R140A-1 (run 1),-8.331
same,Span (best-fit),[5]; R140A-1 (run 1),51.38
same,Top (best-fit),[5]; R140A-1 (run 1),50.75
same,LogEC50 (best-fit),[5]; R140A-2 (run 2),-8.178
same,Span (best-fit),[5]; R140A-2 (run 2),55.99
same,Top (best-fit),[5]; R140A-2 (run 2),44.7
same,LogEC50 (best-fit),[5]; R140A-3 (run 3),-8.181
same,Span (best-fit),[5]; R140A-3 (run 3),61.6
same,Top (best-fit),[5]; R140A-3 (run 3),61.78
same,LogEC50 (best-fit),[5]; W269A-1 (run 1),-6.886
same,Span (best-fit),[5]; W269A-1 (run 1),28.05
same,Top (best-fit),[5]; W269A-1 (run 1),27.2
same,LogEC50 (best-fit),[5]; W269A-2 (run 2),-6.322
same,Span (best-fit),[5]; W269A-2 (run 2),26.76
same,Top (best-fit),[5]; W269A-2 (run 2),23
same,LogEC50 (best-fit),[5]; W269A-3 (run 3),-6.81
same,Span (best-fit),[5]; W269A-3 (run 3),22.83
same,Top (best-fit),[5]; W269A-3 (run 3),22.91
same,LogEC50 (best-fit),[5]; Y312A-1 (run 1),-8.087
same,Span (best-fit),[5]; Y312A-1 (run 1),42.16
same,Top (best-fit),[5]; Y312A-1 (run 1),41.34
same,LogEC50 (best-fit),[5]; Y312A-2 (run 2),-7.939
same,Span (best-fit),[5]; Y312A-2 (run 2),49.41
same,Top (best-fit),[5]; Y312A-2 (run 2),47.36
same,LogEC50 (best-fit),[5]; Y312A-3 (run 3),-8.193
same,Span (best-fit),[5]; Y312A-3 (run 3),41.16
same,Top (best-fit),[5]; Y312A-3 (run 3),41.43
same,Internalization of microswitch mutants,[5]; alanine substitution of microswitch residues,reduced receptor internalization
same,EC50,[5]; F265A-1 (run 1),11.9 µM
same,LogEC50,[5]; F265A-1 (run 1),-4.926
same,Span,[5]; F265A-1 (run 1),10.7
same,Top,[5]; F265A-1 (run 1),10.68
same,LogEC50,[5]; F265A-2 (run 2),-7.219
same,Span,[5]; F265A-2 (run 2),0.6462
same,Top,[5]; F265A-2 (run 2),-7.332
same,EC50,[5]; F265A-3 (run 3),14.7 µM
same,LogEC50,[5]; F265A-3 (run 3),-4.832
same,Span,[5]; F265A-3 (run 3),19.35
same,Top,[5]; F265A-3 (run 3),19.15
same,EC50,[5]; F294A-1 (run 1),2.09 µM
same,LogEC50,[5]; F294A-1 (run 1),-5.679
